Test results as given in US12397045B2, “Clostridioides difficile” (IMPERIAL COLLEGE OF SCIENCE, TECHNOLOGY AND MEDICINE, priority 2018, dated 2025).

Key:
C. difficile = experiment: Growth inhibition of C. difficile with 20 mM short or medium chain fatty acids; assay type: cell-based, Clostridioides difficile; details: 20 mM fatty acid
From the text: Acetate is a C2 chain and they increase by one carbon until heptanoate is reached which is C7.
The inventors assessed a range of short/medium chain fatty acids (S/MCFA).

[1] = system: colonocyte cell line Caco2; experiment: MTT viability assay of Caco2 cells; assay type: cell-based; details: 45 mM, 48 h
Method: A higher OD value represents greater viability.
The inventors determined to what extent the C5, C6 and C7 chain length fatty acids affect viability of the colonocyte cell line Caco2. Caco2 cells were grown until confluent in DMEM with serum and then trypsinised and diluted to 10^5 cells per ml and re-seeded into a 24 well plate and allowed to grow for a further 48 hours. At this point they were exposed to a 45 mM concentration of the SCFA or MCFA for 48 h and viability assessed using an MT assay.

CD 027 = experiment: Isovalerate inhibition of C. difficile growth; assay type: cell-based, Clostridioides difficile; details: strain CD 027
From the text: (§1) The inventors tested the ability of isovalerate to inhibit C. difficile growth (FIG. 36).

CD010 = experiment: Isovalerate inhibition of C. difficile growth; assay type: cell-based, Clostridioides difficile; details: strain CD010
From the text: as §1

CD012 = experiment: Isovalerate inhibition of C. difficile growth; assay type: cell-based, Clostridioides difficile; details: strain CD012
From the text: as §1

[2] = system: C. difficile ribotype 010; experiment: C. difficile batch cultures, vegetative growth with valerate (OD600); assay type: cell-based, Clostridioides difficile; details: sBHI broth pH 6.8, p=0.008
Method: (§2) Vegetative cells were inoculated into sBHI broth containing varying concentrations of valerate (o, 1, 2, 3, 4, 5, 10, and 20 mM) and OD600 measurements were taken at 0, 2, 4, 6, and 8 hours. The change in OD600 (from a time point during the exponential phase) was plotted against the concentrations of valerate tested. (a) C. difficile ribotype 010, (b) C. difficile ribotype 012, (c) C. difficile ribotype 027, (d) Bacteroides uniformis, (e) Bacteroides vulgatus, (f) Clostridium scindens. Error bars represent the mean standard deviation, * p<0.05, ** p<0.01, *** p<0.001.
(§3) The inventors tested the effects of valerate (Fisher Scientific) on the vegetative growth of three C. difficile ribotypes (010, 012, and 027) as well as several gut commensal bacteria (Bacteroides uniformis, Bacteroides vulgatus, and Clostridium scindens). […] The inventors plotted the changes in OD600 (from a time point during the exponential phase) against each concentration of valerate tested. The inventors used ANOVA and Tukey post hoc test to determine whether the concentration of valerate tested affected the growth of the test isolate compared to batch cultures grown in the absence of valerate.
(§4) C. difficile DS1684 (ribotype 010, non-toxigenic strain) was used for chemostat model experiments. C. difficile DS1684, C. difficile CD630 (ribotype 012, virulent multidrug resistant strain), C. difficile R20291 (ribotype 027, a hypervirulent strain), Bacteroides uniformis, Bacteroides vulgatus, and Clostridium scindens (DSM 5676) were used in batch culture experiments. C. difficile ribotype 027 is a common ribotype in Europe and North America,^1-3 while ribotype 012 is one of the common ribotypes in mainland China.^4,5 CD630 and R20291 are genetically and phenotypically well-characterised and are good representatives of their ribotypes.^6 B. uniformis and B. vulgatus were isolated from the stool of a healthy person using fastidious anaerobe agar (Lab M, Heywood, UK) or nutrient agar (Sigma-Aldrich, St. Louis, USA), respectively.

[3] = system: C. difficile ribotype 012; experiment: as above; assay type: cell-based, Clostridioides difficile; details: sBHI broth pH 6.8, p=0.003
Method: as §2, §3, §4

[4] = system: C. difficile ribotype 027; experiment: as above; assay type: cell-based, Clostridioides difficile; details: sBHI broth pH 6.8, p=0.008
Method: as §2, §3, §4

Bacteroides uniformis = experiment: Batch cultures of gut commensal with valerate (OD600); assay type: cell-based; details: only concentration that inhibited, p=0.026
Method: as §2, §3, §4

Bacteroides vulgatus = experiment: as above; assay type: cell-based
Method: as §2, §3, §4

Clostridium scindens = experiment: as above; assay type: cell-based; details: 0-20 mM valerate tested, p>0.05
Method: as §2, §3, §4

[5] = system: 6 strains of C. difficile; experiment: Valerate inhibition of 6 strains of C. difficile (change in OD600); assay type: cell-based, Clostridioides difficile; details: 0, 5, 10, 20 mM valerate
From the text: Error bars represent mean±SD. **p<0.01;[…] (ANOVA and Tukey post hoc test), N=12.
As there are many strains of the C. difficile pathogen, the inventors extended the range of strains to determine how valerate inhibited growth (FIG. 32), and have also assessed the ability of valerate to target other species of bacteria (FIG. 33).

gut organoids = details: 5 mM valerate; personal communication; cited from earlier work

SMILES	inhibition of C. difficile growth (C. difficile)	potency at inhibiting growth relative to valerate (C. difficile)	viability of colonocytes [1]	viability of colonocytes ([1]; listed as C6)	inhibition of C. difficile growth (CD 027)	inhibition of C. difficile growth (CD010)	inhibition of C. difficile growth (CD012)	valerate concentration inhibiting vegetative growth [2]	valerate concentration inhibiting vegetative growth [3]	valerate concentration inhibiting vegetative growth [4]	valerate concentration inhibiting growth (Bacteroides uniformis)	inhibition of growth by valerate (Bacteroides vulgatus; 0-20 mM valerate tested)	growth in broths containing valerate (Bacteroides vulgatus; 10 mM (p=0.020) or 20 mM (p=0.019) valerate)	inhibition of growth by valerate (Clostridium scindens)	inhibition of growth of C. difficile strains [5]	cell death / alterations in gene expression (gut organoids)
CCCCCCC(=O)O [heptanoate, heptanoic acid]	potent inhibitors	significantly more potent	do not significantly decrease													
CCCCCC(=O)O [hexanoate, hexanoic acid]	potent inhibitors	significantly more potent	significantly increased	do not significantly decrease												
CC(C)CC(=O)O [isovalerate]					comparable to valerate	significant ability to inhibit growth	significant ability to inhibit growth									
CCCCC(=O)O [valerate, valeric acid]	potent inhibitors		do not significantly decrease			inhibited to a greater extent	inhibited to a greater extent	4 mM	2 mM	2 mM	20 mM	not inhibited at any concentration	grew better	not inhibited at any concentration	effective against all strains	did not result in cell death or cause significant alterations in gene expression
